In US11827663B2, “Use of UAP inhibitors to inhibit flux through the hexosamine biosynthetic pathway” (The Johns Hopkins University, priority 2014, dated 2023):
pIC50: −log10 of the molar value.

Tests used:
Format in all cases: cell-based
[1] = test system: UDP-Glc/GalNAc (HexNAc), product of UAP1/2; test: Targeted metabolomics, LC-MS/MS of UDP-HexNAc in 612 cells
Method: FIGS. 16A-16B show exemplary targeted metabolomics results from primary glioblastoma cells. […] (n=3, with error bars representing SEM;* indicates p<0.05)
In FIGS. 16A-16B, representative targeted metabolomics results from primary glioblastoma cells were quantitated using LC-MS/MS traces. For example, the 612 cells were treated with 50 μM or 100 μM of Ac4Glc2Bz or non-treated (control). Afterwards, the cell extracts were obtained using Bligh-Dyer extraction and the extracts were analyzed using LC-MS/MS. Twelve 150-mm tissue culture plates were coated with lamin (1 ug/cm^2) in PBS for 24 h. 5×10^6 612 cells were seed onto each plate in 20 mL of media for condition tested: DMSO vehicle control (2 plates) (matched to the volume of vehicle used for the 100 μM condition), 50 μM (4 plates), 100 μM (6 plates). Ater 48 h, the plates were cooled for 10 minutes on ice followed by aspiration of the media. The plates were then tilted at 30° for 30 seconds and any remaining media was removed. Plates were washed twice with 10 mL of ice cold PBS (calcium and magnesium ion free). Next, the plates were covered and chilled with dry ice for 10 minutes to completely freeze all of the cells. While freezing the cells, a solution of methanol:H2O (2:0.8) was made and chilled in an isopropyl alcohol-dry ice bath. The plates were transferred to wet ice and 500 μL of the MeOH:H2O solution was added to the plates. Cells were scraped and the were transferred to a 15 mL tube. 500 μL more of the methanol:H2O solution was added again, and any remaining cells were scraped off the plates and were transferred to the 15 mL tubes. Samples, while remaining cold, were sonicated 2-5 times for 1 s and 1 part of chloroform was added to produce a ration of 1:2:0.8 (CHCl3:MeOH:H2O). Samples were briefly vortexed while still cold and 1 part of H2O was added followed by vortexing. […] DNA quantity from the interphase disc was determined using a fluorescent assay (SIGMA). […] The aqeuous layers were combined after normazling reconstitutions to the quantities of DNA obtained for each condition tested. […]

microRNA = test: qRT-PCR analysis of microRNA expression; conditions: SW1990 and 612 cells, 48 h
Method: FIGS. 20A-20C show qRT-PCR analysis of microRNA expression following treatment with different concentrations of Ac4Glc2Bz, for SW1990 cells of […] (FIG. 20A); for 612 cells of 191b-5p (FIG. 20B); and for SW1990 cells of 181p-5p (FIG. 20C).
The microRNAs analyzed were chosen because they regulated different aspects of cancer cell glycosylation. 3×10^5 cells per well in a 6-well plate were seeded along with the concentrations of Ac4Glc2Bz indicated. Glioblastoma cells were placed on 6-well plates precoated with laminin (1 ug/cm^2). After 48 h, miRNA was extracted using a miRNeasy kit (Qiagen), followed by cDNA synthesis and qrt-PCR using miRCURY LNA™ Universal RT microRNA PCR Starter Kit (Exiqon).

[2] = test system: primary human adipose stem cells (hASCs); test: Cell count assay in control cells (human ASCs)
Text: FIG. 4A and FIG. 4B depict histogram results of cell count assays after two days of exposure to each analog in cancer cell lines (SW1990 and PANC-1) and in control cells (human ASCs). […] In all cases, IC50 values were greater than 300 which is the highest concentration tested, for the ACSs, while the Ac4Glc2Bz analogs and Ac4Gal2Bz analogs were effective to reduce cell numbers in both cancer cell lines.

`CC(=O)OCC1OC(OC(C)=O)[C@@H](NC(=O)c2ccccc2)[C@@H](OC(C)=O)[C@@H]1OC(C)=O` (stereo partly drawn) [Ac4Glc2Bz] was tested, and the “LC-MS/MS peaks for UDP-HexNAc in treated cell extracts” value ([1]; 612 cells, 50 μM or 100 μM, 48 h) was “substantially lower”, the “reduction of quantitized amount of UDP-HexNAc, particularly UDP-GlcNAc, vs non-treated cell” value ([1]; 612 cells, 50 μM, 48 h) was about 4 fold and the “residual level of UDP-GlcNAc” value ([1]; printed as shown in FIGS. 18A-18B) was “about 25%”. The microRNA expression (microRNA) was “could be modulated”, the pIC50 ([2]; Homo sapiens, 48 h, two days of exposure, 300 is the highest concentration tested) was under 3.52 and the “cytotoxicity / inhibition of normal ASCs” value ([2]; normal cells) was “minimally inhibits”.
